From patent US9376425B2, “Heterocyclic compounds as MDM2 inhibitors for the treatment of cancer” (AMGEN INC., priority 2011, dated 2016)

Target: T1, human MDM2 (GST-hMDM2 1-188), interaction with biotinylated-p53 (1-83) (Homo sapiens, UniProt Q00987)
T1 construct: Amino acid residues 1-188 of human MDM2 were expressed; made in house; host or cells: Escherichia coli
Assay: improved HTRF assay (HTRF2 assay), inhibition of HDM2-p53 interaction
Type: binding
Conditions: 0.2 nM GST-hMDM2, 0.5 nM biotinylated-p53, 100 mM KF
Outline: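 GST-hMDM2 preincubated 20 min at RT with serially diluted compound, then biotinylated p53 (1-83, E. coli) added for 60 min. Detection with SA-XLent, anti-GST cryptate and KF, equilibrated >4 h; final DMSO 2%. TR-FRET read; % inhibition calculated relative to nutlin-3.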

T1 sequence (Q00987 1-188): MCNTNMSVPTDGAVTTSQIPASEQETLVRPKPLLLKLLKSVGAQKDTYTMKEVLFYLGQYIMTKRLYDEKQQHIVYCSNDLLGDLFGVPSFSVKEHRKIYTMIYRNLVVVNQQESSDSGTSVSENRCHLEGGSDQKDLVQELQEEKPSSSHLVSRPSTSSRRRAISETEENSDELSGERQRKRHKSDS

Row | Compound | IC50 [nM]
1 | CC(C)(C)S(=O)(=O)C[C@H](C1CC1)N1C(=O)[C@@H](CC(=O)NCC(F)(F)F)O[C@H](c2cccc(Cl)c2)[C@H]1c1ccc(Cl)cc1 (single isomer, unassigned) [Example 346, 2-((2R,5R,6R)-4-((S)-2-(tert-Butylsulfonyl)-1-cyclopropylethyl)-6-(3-chlorophenyl)-5-(4-chlorophenyl)-3-oxomorpholin-2-yl)-N-(2,2,2-trifluoroethyl)acetamide or 2-((2S,5R,6R)-4-((S)-2-(tert-butylsulfonyl)-1-cyclopropylethyl)-6-(3-chlorophenyl)-5-(4-chlorophenyl)-3-oxomorpholin-2-yl)-N-(2,2,2-trifluoroethyl)acetamide] | 21
2 | CC(C)(C)S(=O)(=O)C[C@H](C1CC1)N1C(=O)[C@@H](CC(=O)NCC(F)(F)F)O[C@H](c2cccc(Cl)c2)[C@H]1c1ccc(Cl)cc1 (single isomer, unassigned) [Example 347, 2-((2R,5R,6R)-4-((S)-2-(tert-Butylsulfonyl)-1-cyclopropylethyl)-6-(3-chlorophenyl)-5-(4-chlorophenyl)-3-oxomorpholin-2-yl)-N-(2,2,2-trifluoroethyl)acetamide or 2-((2S,5R,6R)-4-((S)-2-(tert-butylsulfonyl)-1-cyclopropylethyl)-6-(3-chlorophenyl)-5-(4-chlorophenyl)-3-oxomorpholin-2-yl)-N-(2,2,2-trifluoroethyl)acetamide] | 4
3 | CC(C)(C)S(=O)(=O)C[C@H](C1CC1)N1C(=O)[C@@H](CC(=O)NCC#N)O[C@H](c2cccc(Cl)c2)[C@H]1c1ccc(Cl)cc1 (single isomer, unassigned) [Example 348, 2-((2R,5R,6R)-4-((S)-2-(tert-Butylsulfonyl)-1-cyclopropylethyl)-6-(3-chlorophenyl)-5-(4-chlorophenyl)-3-oxomorpholin-2-yl)-N-(cyanomethyl)acetamide or 2-((2S,5R,6R)-4-((S)-2-(tert-butylsulfonyl)-1-cyclopropylethyl)-6-(3-chlorophenyl)-5-(4-chlorophenyl)-3-oxomorpholin-2-yl)-N-(cyanomethyl)acetamide] | 5
4 | CC(C)(C)S(=O)(=O)C[C@H](C1CC1)N1C(=O)[C@@H](CC(=O)NCC#N)O[C@H](c2cccc(Cl)c2)[C@H]1c1ccc(Cl)cc1 (single isomer, unassigned) [Example 349, 2-((2R,5R,6R)-4-((S)-2-(tert-Butylsulfonyl)-1-cyclopropylethyl)-6-(3-chlorophenyl)-5-(4-chlorophenyl)-3-oxomorpholin-2-yl)-N-(cyanomethyl)acetamide or 2-((2S,5R,6R)-4-((S)-2-(tert-butylsulfonyl)-1-cyclopropylethyl)-6-(3-chlorophenyl)-5-(4-chlorophenyl)-3-oxomorpholin-2-yl)-N-(cyanomethyl)acetamide] | 1
5 | CC(C)(C)S(=O)(=O)C[C@H](C1CC1)N1C(=O)[C@@H](CC(=O)Nc2ccccc2)O[C@H](c2cccc(Cl)c2)[C@H]1c1ccc(Cl)cc1 (single isomer, unassigned) [Example 350, 2-((2R,5R,6R)-4-((S)-2-(tert-Butylsulfonyl)-1-cyclopropylethyl)-6-(3-chlorophenyl)-5-(4-chlorophenyl)-3-oxomorpholin-2-yl)-N-phenylacetamide or 2-42S,5R,6R)-4-((S)-2-(tert-butylsulfonyl)-1-cyclopropylethyl)-6-(3-chlorophenyl)-5-(4-chlorophenyl)-3-oxomorpholin-2-yl)-N-phenylacetamide] | 16
6 | CC(C)(C)S(=O)(=O)C[C@H](C1CC1)N1C(=O)[C@@H](CC(=O)Nc2ccccc2)O[C@H](c2cccc(Cl)c2)[C@H]1c1ccc(Cl)cc1 (single isomer, unassigned) [Example 351, 2-((2R,5R,6R)-4-((S)-2-(tert-Butylsulfonyl)-1-cyclopropylethyl)-6-(3-chlorophenyl)-5-(4-chlorophenyl)-3-oxomorpholin-2-yl)-N-phenylacetamide or 2-((2S,5R,6R)-4-((S)-2-(tert-butylsulfonyl)-1-cyclopropylethyl)-6-(3-chlorophenyl)-5-(4-chlorophenyl)-3-oxomorpholin-2-yl)-N-phenylacetamide] | 4
7 | CC(C)(C)S(=O)(=O)C[C@H](C1CC1)N1C(=O)[C@@H](CC(=O)Nc2ccccc2F)O[C@H](c2cccc(Cl)c2)[C@H]1c1ccc(Cl)cc1 (single isomer, unassigned) [Example 352, 2-((2R,5R,6R)-4-((S)-2-(tert-Butylsulfonyl)-1-cyclopropylethyl)-6-(3-chlorophenyl)-5-(4-chlorophenyl)-3-oxomorpholin-2-yl)-N-(2-fluorophenyl)acetamide or 2-((2S,5R,6R)-4-((S)-2-(tert-butylsulfonyl)-1-cyclopropylethyl)-6-(3-chlorophenyl)-5-(4-chlorophenyl)-3-oxomorpholin-2-yl)-N-(2-fluorophenyl)acetamide] | 25
8 | CC(C)(C)S(=O)(=O)C[C@H](C1CC1)N1C(=O)[C@@H](CC(=O)Nc2ccccc2F)O[C@H](c2cccc(Cl)c2)[C@H]1c1ccc(Cl)cc1 (single isomer, unassigned) [Example 353, 2-((2R,5R,6R)-4-((S)-2-(tert-Butylsulfonyl)-1-cyclopropylethyl)-6-(3-chlorophenyl)-5-(4-chlorophenyl)-3-oxomorpholin-2-yl)-N-(2-fluorophenyl)acetamide or 2-((2S,5R,6R)-4-((S)-2-(tert-butylsulfonyl)-1-cyclopropylethyl)-6-(3-chlorophenyl)-5-(4-chlorophenyl)-3-oxomorpholin-2-yl)-N-(2-fluorophenyl)acetamide] | 9
9 | CC(C)(C)S(=O)(=O)C[C@H](C1CC1)N1C(=O)[C@@H](CC(=O)Nc2ccccn2)O[C@H](c2cccc(Cl)c2)[C@H]1c1ccc(Cl)cc1 (single isomer, unassigned) [Example 354, 2-((2R,5R,6R)-4-((S)-2-(tert-Butylsulfonyl)-1-cyclopropylethyl)-6-(3-chlorophenyl)-5-(4-chlorophenyl)-3-oxomorpholin-2-yl)-N-(pyridin-2-yl)acetamide or 2-((2S,5R,6R)-4-((S)-2-(tert-butylsulfonyl)-1-cyclopropylethyl)-6-(3-chlorophenyl)-5-(4-chlorophenyl)-3-oxomorpholin-2-yl)-N-(pyridin-2-yl)acetamide] | 2
10 | CC(C)(C)S(=O)(=O)C[C@H](C1CC1)N1C(=O)[C@@H](CC(=O)Nc2ccccn2)O[C@H](c2cccc(Cl)c2)[C@H]1c1ccc(Cl)cc1 (single isomer, unassigned) [Example 355, 2-((2R,5R,6R)-4-((S)-2-(tert-Butylsulfonyl)-1-cyclopropylethyl)-6-(3-chlorophenyl)-5-(4-chlorophenyl)-3-oxomorpholin-2-yl)-N-(pyridin-2-yl)acetamide or 2-((2S,5R,6R)-4-((S)-2-(tert-butylsulfonyl)-1-cyclopropylethyl)-6-(3-chlorophenyl)-5-(4-chlorophenyl)-3-oxomorpholin-2-yl)-N-(pyridin-2-yl)acetamide] | 4
11 | CC(C)(C)S(=O)(=O)C[C@H](C1CC1)N1C(=O)[C@@H](CC(N)=O)O[C@H](c2cccc(Cl)c2)[C@H]1c1ccc(Cl)cc1 (single isomer, unassigned) [Example 356, 2-((2R,5R,6R)-4-((S)-2-(tert-Butylsulfonyl)-1-cyclopropylethyl)-6-(3-chlorophenyl)-5-(4-chlorophenyl)-3-oxomorpholin-2-yl)acetamide or 2-((2S,5R,6R)-4-((S)-2-(tert-butylsulfonyl)-1-cyclopropylethyl)-6-(3-chlorophenyl)-5-(4-chlorophenyl)-3-oxomorpholin-2-yl)acetamide] | 10
12 | CC(C)(C)S(=O)(=O)C[C@H](C1CC1)N1C(=O)[C@@H](CC(N)=O)O[C@H](c2cccc(Cl)c2)[C@H]1c1ccc(Cl)cc1 (single isomer, unassigned) [Example 357, 2-((2R,5R,6R)-4-((S)-2-(tert-Butylsulfonyl)-1-cyclopropylethyl)-6-(3-chlorophenyl)-5-(4-chlorophenyl)-3-oxomorpholin-2-yl)acetamide or 2-((2S,5R,6R)-4-((S)-2-(tert-butylsulfonyl)-1-cyclopropylethyl)-6-(3-chlorophenyl)-5-(4-chlorophenyl)-3-oxomorpholin-2-yl)acetamide] | 6
13 | NC(=O)C[C@H]1O[C@H](c2cccc(Cl)c2)[C@@H](c2ccc(Cl)cc2)N([C@H](CN(c2c(F)cccc2F)S(=O)(=O)C2CC2)C2CC2)C1=O (single isomer, unassigned) [Example 358, 2-((2R,5R,6R)-6-(3-Chlorophenyl)-5-(4-chlorophenyl)-4-((S)-1-cyclopropyl-2-(N-(2,6-difluorophenyl)cyclopropanesulfonamido)ethyl)-3-oxomorpholin-2-yl)acetamide or 2-((2S,5R,6R)-6-(3-chlorophenyl)-5-(4-chlorophenyl)-4-((S)-1-cyclopropyl-2-(N-(2,6-difluorophenyl)cyclopropanesulfonamido)ethyl)-3-oxomorpholin-2-yl)acetamide] | < 1
14 | NC(=O)C[C@H]1O[C@H](c2cccc(Cl)c2)[C@@H](c2ccc(Cl)cc2)N([C@H](CN(c2c(F)cccc2F)S(=O)(=O)C2CC2)C2CC2)C1=O (single isomer, unassigned) [Example 359, 2-((2R,5R,6R)-6-(3-Chlorophenyl)-5-(4-chlorophenyl)-4-((S)-1-cyclopropyl-2-(N-(2,6-difluorophenyl)cyclopropanesulfonamido)ethyl)-3-oxomorpholin-2-yl)acetamide or 2-((2S,5R,6R)-6-(3-chlorophenyl)-5-(4-chlorophenyl)-4-((S)-1-cyclopropyl-2-(N-(2,6-difluorophenyl)cyclopropanesulfonamido)ethyl)-3-oxomorpholin-2-yl)acetamide] | < 1
